Measured values reported in the kinase profiling compilation of Christmann-Franck et al. (2016).

Experiments:
Experiment in all cases: radiometric filter-binding kinase assay, Kinase HotSpot
Conditions in all cases: compound 0.5 µM; ATP 10 µM
[1] = target: ACVRL1 (human) (UniProt P37023)
[2] = target: AKT1 (human) (UniProt P31749)
[3] = target: AURKB (human) (UniProt Q96GD4)
[4] = target: BRSK2 (human) (UniProt Q8IWQ3)
[5] = target: CAMK2G (human) (UniProt Q13555)
[6] = target: CAMKK2 (human) (UniProt Q96RR4)
[7] = target: CDC42BPB (human) (UniProt Q9Y5S2)
[8] = target: CDK1 CCNA2 (human) (UniProt P06493+P20248)
[9] = target: CDK2 CCNE1 (human) (UniProt P24941+P24864)
[10] = target: CDK4 CCND1 (human) (UniProt P24385+P11802)
[11] = target: CDK5 CDK5R1 p35 (human) (UniProt Q00535+Q15078)
[12] = target: CHEK1 (human) (UniProt O14757)
[13] = target: DDR2 (human) (UniProt Q16832)
[14] = target: FGFR4 (human) (UniProt P22455)
[15] = target: FLT3 (human) (UniProt P36888)
[16] = target: GRK6 (human) (UniProt P43250)
[17] = target: GSG2 (human) (UniProt Q8TF76)
[18] = target: GSK3B (human) (UniProt P49841)
[19] = target: HIPK2 (human) (UniProt Q9H2X6)
[20] = target: INSR (human) (UniProt P06213)
[21] = target: IRAK1 (human) (UniProt P51617)
[22] = target: ITK (human) (UniProt Q08881)
[23] = target: MAP2K1 (human) (UniProt Q02750)
[24] = target: MAP3K10 (human) (UniProt Q02779)
[25] = target: MAP3K2 (human) (UniProt Q9Y2U5)
[26] = target: MAP3K9 (human) (UniProt P80192)
[27] = target: MAPK11 (human) (UniProt Q15759)
[28] = target: MAPK14 (human) (UniProt Q16539)
[29] = target: MATK (human) (UniProt P42679)
[30] = target: NEK11 (human) (UniProt Q8NG66)
[31] = target: NLK (human) (UniProt Q9UBE8)
[32] = target: PASK (human) (UniProt Q96RG2)
[33] = target: PIM3 (human) (UniProt Q86V86)
[34] = target: PLK1 (human) (UniProt P53350)
[35] = target: RPS6KA5 KD2 (human) (UniProt O75582)
[36] = target: SRMS (human) (UniProt Q9H3Y6)
[37] = target: SRPK1 (human) (UniProt Q96SB4)
[38] = target: STK39 (human) (UniProt Q9UEW8)
[39] = target: STK4 (human) (UniProt Q13043)
[40] = target: TNK2 (human) (UniProt Q07912)
[41] = target: TSSK1B (human) (UniProt Q9BXA7)
[42] = target: TXK (human) (UniProt P42681)

Chain of AURKB (human) (Q96GD4 whole entry, looked up): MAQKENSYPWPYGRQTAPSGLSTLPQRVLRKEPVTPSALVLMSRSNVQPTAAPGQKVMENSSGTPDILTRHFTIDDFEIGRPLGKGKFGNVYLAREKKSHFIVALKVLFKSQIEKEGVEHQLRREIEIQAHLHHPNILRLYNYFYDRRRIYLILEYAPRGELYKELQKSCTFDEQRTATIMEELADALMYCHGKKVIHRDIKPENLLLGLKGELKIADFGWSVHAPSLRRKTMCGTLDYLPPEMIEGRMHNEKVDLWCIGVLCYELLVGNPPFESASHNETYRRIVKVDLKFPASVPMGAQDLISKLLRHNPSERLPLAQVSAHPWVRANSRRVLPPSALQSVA
Chain of IRAK1 (human) (P51617 whole entry, looked up): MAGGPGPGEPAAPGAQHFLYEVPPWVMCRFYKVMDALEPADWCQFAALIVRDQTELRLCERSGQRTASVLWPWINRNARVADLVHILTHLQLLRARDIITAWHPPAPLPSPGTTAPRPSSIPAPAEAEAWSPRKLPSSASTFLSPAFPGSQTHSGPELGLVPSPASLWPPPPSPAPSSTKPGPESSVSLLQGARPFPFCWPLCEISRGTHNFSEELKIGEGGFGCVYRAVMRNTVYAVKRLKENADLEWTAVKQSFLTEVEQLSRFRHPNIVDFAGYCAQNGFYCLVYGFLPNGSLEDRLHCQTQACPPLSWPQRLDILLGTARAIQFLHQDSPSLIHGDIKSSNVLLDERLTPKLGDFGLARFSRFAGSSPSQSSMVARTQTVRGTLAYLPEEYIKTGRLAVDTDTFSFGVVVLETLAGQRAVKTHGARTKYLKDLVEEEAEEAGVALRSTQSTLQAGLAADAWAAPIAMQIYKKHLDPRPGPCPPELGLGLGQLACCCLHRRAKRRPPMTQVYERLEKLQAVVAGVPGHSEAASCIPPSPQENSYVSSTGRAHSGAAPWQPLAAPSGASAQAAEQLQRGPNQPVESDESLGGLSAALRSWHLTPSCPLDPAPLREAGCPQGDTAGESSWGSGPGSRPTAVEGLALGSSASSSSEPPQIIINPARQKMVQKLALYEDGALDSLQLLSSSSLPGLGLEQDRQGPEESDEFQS
Chain of BRSK2 (human) (Q8IWQ3 whole entry, looked up): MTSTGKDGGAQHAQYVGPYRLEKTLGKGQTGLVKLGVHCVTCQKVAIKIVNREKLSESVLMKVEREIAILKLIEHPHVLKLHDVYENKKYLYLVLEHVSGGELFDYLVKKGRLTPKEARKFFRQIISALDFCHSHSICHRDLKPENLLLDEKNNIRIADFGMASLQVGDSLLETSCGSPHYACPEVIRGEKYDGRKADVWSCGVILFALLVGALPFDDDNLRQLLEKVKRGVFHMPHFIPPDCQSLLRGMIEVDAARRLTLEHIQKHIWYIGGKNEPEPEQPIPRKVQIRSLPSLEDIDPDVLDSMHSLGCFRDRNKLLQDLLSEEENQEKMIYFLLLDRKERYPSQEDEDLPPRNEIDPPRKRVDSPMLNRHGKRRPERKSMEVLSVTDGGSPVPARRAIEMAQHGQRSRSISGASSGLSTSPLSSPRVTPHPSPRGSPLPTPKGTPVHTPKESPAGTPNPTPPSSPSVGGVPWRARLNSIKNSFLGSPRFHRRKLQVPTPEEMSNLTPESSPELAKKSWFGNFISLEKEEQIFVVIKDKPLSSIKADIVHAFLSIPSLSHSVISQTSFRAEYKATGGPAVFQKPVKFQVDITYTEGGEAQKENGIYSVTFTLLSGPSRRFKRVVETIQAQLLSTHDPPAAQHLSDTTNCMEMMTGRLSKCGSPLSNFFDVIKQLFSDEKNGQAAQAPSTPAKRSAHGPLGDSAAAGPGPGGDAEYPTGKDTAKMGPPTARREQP
Chain of INSR (human) (P06213 whole entry, looked up): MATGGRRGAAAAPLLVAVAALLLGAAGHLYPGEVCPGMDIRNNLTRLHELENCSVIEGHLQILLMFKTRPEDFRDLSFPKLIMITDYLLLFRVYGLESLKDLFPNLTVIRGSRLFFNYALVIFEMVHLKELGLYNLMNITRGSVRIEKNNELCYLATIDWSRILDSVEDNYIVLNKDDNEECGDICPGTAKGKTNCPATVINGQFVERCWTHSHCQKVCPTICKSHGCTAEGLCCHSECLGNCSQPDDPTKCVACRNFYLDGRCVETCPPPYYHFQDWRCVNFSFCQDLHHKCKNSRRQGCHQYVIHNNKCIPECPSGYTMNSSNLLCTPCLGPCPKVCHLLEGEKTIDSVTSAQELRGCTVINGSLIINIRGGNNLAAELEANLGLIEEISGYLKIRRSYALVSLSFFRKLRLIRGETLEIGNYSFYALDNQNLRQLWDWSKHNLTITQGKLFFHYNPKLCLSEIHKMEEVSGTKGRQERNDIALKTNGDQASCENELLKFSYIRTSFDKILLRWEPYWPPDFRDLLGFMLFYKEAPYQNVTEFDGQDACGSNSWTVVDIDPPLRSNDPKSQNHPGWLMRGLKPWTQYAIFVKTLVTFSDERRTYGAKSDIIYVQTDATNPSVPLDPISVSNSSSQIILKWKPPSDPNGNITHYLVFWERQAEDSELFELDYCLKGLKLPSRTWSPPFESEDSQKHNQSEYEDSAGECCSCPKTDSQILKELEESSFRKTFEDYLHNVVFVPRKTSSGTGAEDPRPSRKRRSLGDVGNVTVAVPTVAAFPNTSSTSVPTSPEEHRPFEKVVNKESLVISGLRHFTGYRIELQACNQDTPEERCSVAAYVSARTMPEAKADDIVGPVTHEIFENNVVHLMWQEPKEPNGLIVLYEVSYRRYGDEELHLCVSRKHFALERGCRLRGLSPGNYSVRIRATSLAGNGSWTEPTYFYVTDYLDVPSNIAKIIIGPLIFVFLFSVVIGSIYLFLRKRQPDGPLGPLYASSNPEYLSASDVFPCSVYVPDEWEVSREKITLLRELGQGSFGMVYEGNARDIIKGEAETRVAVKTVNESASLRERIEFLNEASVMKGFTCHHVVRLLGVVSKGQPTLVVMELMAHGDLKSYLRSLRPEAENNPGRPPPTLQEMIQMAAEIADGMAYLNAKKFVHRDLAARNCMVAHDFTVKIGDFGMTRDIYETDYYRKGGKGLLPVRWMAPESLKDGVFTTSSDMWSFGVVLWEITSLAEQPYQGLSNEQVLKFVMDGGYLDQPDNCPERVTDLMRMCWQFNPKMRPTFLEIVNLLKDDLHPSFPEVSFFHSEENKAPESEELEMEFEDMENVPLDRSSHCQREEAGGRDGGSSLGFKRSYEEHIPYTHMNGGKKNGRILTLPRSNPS
Chain of MAP3K10 (human) (Q02779 whole entry, looked up): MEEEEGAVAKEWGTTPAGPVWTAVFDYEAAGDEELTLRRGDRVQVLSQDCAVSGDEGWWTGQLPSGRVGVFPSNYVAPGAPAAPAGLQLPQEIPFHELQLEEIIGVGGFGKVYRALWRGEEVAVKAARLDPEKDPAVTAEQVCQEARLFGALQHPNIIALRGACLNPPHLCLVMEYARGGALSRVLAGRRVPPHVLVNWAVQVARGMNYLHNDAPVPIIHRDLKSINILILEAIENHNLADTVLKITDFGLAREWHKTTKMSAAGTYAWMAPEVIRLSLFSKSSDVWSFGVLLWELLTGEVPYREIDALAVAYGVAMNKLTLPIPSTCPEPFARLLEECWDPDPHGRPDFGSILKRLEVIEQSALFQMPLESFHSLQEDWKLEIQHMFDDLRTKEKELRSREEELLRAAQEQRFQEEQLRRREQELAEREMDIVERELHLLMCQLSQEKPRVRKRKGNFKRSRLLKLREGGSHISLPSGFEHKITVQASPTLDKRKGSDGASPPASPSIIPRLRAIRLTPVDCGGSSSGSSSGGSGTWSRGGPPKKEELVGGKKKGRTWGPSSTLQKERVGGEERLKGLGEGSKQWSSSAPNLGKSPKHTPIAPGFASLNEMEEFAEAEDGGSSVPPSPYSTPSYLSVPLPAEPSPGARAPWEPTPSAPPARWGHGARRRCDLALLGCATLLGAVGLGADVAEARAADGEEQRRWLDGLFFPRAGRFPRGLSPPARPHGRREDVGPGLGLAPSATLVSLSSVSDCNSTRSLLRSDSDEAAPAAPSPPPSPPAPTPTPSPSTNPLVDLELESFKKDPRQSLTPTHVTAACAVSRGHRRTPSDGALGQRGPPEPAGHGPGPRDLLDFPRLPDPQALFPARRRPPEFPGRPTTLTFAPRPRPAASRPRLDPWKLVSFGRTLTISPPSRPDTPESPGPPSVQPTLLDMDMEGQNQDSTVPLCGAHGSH
Chain of GSG2 (human) (Q8TF76 whole entry, looked up): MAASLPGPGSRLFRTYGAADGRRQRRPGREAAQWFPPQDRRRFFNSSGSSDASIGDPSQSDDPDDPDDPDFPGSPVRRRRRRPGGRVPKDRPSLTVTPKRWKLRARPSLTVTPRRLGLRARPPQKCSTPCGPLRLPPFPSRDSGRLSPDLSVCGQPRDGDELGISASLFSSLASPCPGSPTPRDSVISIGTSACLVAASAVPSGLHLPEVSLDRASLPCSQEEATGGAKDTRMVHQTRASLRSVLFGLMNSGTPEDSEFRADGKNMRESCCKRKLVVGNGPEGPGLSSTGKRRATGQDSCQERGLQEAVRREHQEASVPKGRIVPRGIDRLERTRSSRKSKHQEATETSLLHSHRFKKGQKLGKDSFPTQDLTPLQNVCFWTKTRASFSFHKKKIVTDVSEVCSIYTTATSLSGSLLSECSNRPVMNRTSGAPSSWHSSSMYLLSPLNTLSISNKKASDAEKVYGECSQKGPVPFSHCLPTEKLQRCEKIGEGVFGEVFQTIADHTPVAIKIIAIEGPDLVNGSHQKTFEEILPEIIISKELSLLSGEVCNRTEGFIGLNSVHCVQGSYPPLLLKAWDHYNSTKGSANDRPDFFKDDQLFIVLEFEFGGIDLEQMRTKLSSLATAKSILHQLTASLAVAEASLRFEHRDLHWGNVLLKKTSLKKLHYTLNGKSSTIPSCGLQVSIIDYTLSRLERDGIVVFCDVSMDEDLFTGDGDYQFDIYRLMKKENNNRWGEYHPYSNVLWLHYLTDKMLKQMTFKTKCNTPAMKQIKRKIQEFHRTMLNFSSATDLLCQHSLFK

O=C1Nc2ccccc2/C1=C\c1c(Cl)[nH]c2ccccc12
residual activity [1]: 99.8% | residual activity [2]: 94% | residual activity [3]: 97.9% | residual activity [4]: 96.2% | residual activity [5]: 103% | residual activity [6]: 97.8% | residual activity [7]: 102% | residual activity [8]: 103% | residual activity [9]: 79.9% | residual activity [10]: 98.4% | residual activity [11]: 86.7% | residual activity [12]: 93.7% | residual activity [13]: 92.7% | residual activity [14]: 96.9% | residual activity [15]: 80.5% | residual activity [16]: 107% | residual activity [17]: 91% | residual activity [18]: 105% | residual activity [19]: 96.5% | residual activity [20]: 91.2% | residual activity [21]: 89.5% | residual activity [22]: 104% | residual activity [23]: 84.8% | residual activity [24]: 94.7% | residual activity [25]: 94% | residual activity [26]: 97.9% | residual activity [27]: 94.5% | residual activity [28]: 101% | residual activity [29]: 89.5% | residual activity [30]: 98.5% | residual activity [31]: 107% | residual activity [32]: 89.3% | residual activity [33]: 100% | residual activity [34]: 95.4% | residual activity [35]: 85.5% | residual activity [36]: 84.2% | residual activity [37]: 94.2% | residual activity [38]: 104% | residual activity [39]: 91% | residual activity [40]: 98.4% | residual activity [41]: 101% | residual activity [42]: 99.6%

O=c1cc(N2CCNCC2)oc2c(-c3ccccc3)cccc12
residual activity [1]: 106% | residual activity [2]: 103% | residual activity [3]: 97.8% | residual activity [4]: 103% | residual activity [5]: 102% | residual activity [6]: 83.7% | residual activity [7]: 97.5% | residual activity [8]: 84.8% | residual activity [9]: 91.6% | residual activity [10]: 115% | residual activity [11]: 102% | residual activity [12]: 104% | residual activity [13]: 95.5% | residual activity [14]: 106% | residual activity [15]: 108% | residual activity [16]: 89.6% | residual activity [17]: 94.3% | residual activity [18]: 97% | residual activity [19]: 108% | residual activity [20]: 101% | residual activity [21]: 162% | residual activity [22]: 88.1% | residual activity [23]: 103% | residual activity [24]: 87.9% | residual activity [25]: 105% | residual activity [26]: 101% | residual activity [27]: 105% | residual activity [28]: 82.8% | residual activity [29]: 84.5% | residual activity [30]: 97.9% | residual activity [31]: 98.8% | residual activity [32]: 93% | residual activity [33]: 93.5% | residual activity [34]: 96.6% | residual activity [35]: 99.1% | residual activity [36]: 104% | residual activity [37]: 106% | residual activity [38]: 88.5% | residual activity [39]: 88.7% | residual activity [40]: 90.7% | residual activity [41]: 89.5% | residual activity [42]: 95.4%

Nc1n[nH]c2nnc(-c3c(-c4ccccc4)nn4ccccc34)cc12
residual activity [1]: 106% | residual activity [2]: 98% | residual activity [3]: 96.8% | residual activity [4]: 96.1% | residual activity [5]: 96.7% | residual activity [6]: 101% | residual activity [7]: 93.4% | residual activity [8]: 101% | residual activity [9]: 101% | residual activity [10]: 89.2% | residual activity [11]: 105% | residual activity [12]: 103% | residual activity [13]: 101% | residual activity [14]: 104% | residual activity [15]: 63.5% | residual activity [16]: 99.3% | residual activity [17]: 97.1% | residual activity [18]: 109% | residual activity [19]: 104% | residual activity [20]: 78.3% | residual activity [21]: 105% | residual activity [22]: 90.8% | residual activity [23]: 94.3% | residual activity [24]: 90.7% | residual activity [25]: 97.8% | residual activity [26]: 99.9% | residual activity [27]: 90% | residual activity [28]: 94.6% | residual activity [29]: 95.6% | residual activity [30]: 95.1% | residual activity [31]: 102% | residual activity [32]: 99.8% | residual activity [33]: 100% | residual activity [34]: 98.1% | residual activity [35]: 101% | residual activity [36]: 93% | residual activity [37]: 83.7% | residual activity [38]: 89.1% | residual activity [39]: 99.1% | residual activity [40]: 82.7% | residual activity [41]: 102% | residual activity [42]: 88.8%

CCN1/C(=C/C(C)=O)Sc2ccc(OC)cc21
residual activity [1]: 102% | residual activity [2]: 90.1% | residual activity [3]: 87.9% | residual activity [4]: 89.5% | residual activity [5]: 90.4% | residual activity [6]: 95.5% | residual activity [7]: 114% | residual activity [8]: 97.5% | residual activity [9]: 87.7% | residual activity [10]: 92.1% | residual activity [11]: 91.1% | residual activity [12]: 87.9% | residual activity [13]: 96.6% | residual activity [14]: 92.3% | residual activity [15]: 76.1% | residual activity [16]: 103% | residual activity [17]: 25% | residual activity [18]: 98.1% | residual activity [19]: 100% | residual activity [20]: 101% | residual activity [21]: 114% | residual activity [22]: 102% | residual activity [23]: 98.7% | residual activity [24]: 95% | residual activity [25]: 101% | residual activity [26]: 98.8% | residual activity [27]: 84.5% | residual activity [28]: 95.4% | residual activity [29]: 89.2% | residual activity [30]: 104% | residual activity [31]: 103% | residual activity [32]: 72.8% | residual activity [33]: 47.4% | residual activity [34]: 97% | residual activity [35]: 87.4% | residual activity [36]: 84.7% | residual activity [37]: 106% | residual activity [38]: 95.9% | residual activity [39]: 97.8% | residual activity [40]: 102% | residual activity [41]: 110% | residual activity [42]: 100%
